From patent publication US20120258960A1, “NOVEL MULTIFUNCTIONAL PEPTIDASE INHIBITORS, ESPECIALLY FOR MEDICAL USE” (IMTM GMBH, priority 2009, published 2012)

Legend:
T lymphocytes = experiment: Inhibition of proliferation of PHA-stimulated T lymphocytes (tritium thymidine incorporation); assay type: cell-based; conditions: Homo sapiens, T-lymphocyte, 1 μg/ml Phytohemagglutinine, 48 hours, test compounds 0.1-250 μM, read-out: T cells IC50
Experimental: (§1) Peripheral blood mononuclear cells (PBMC) from healthy human volunteers were freshly isolated by density gradient centrifugation. T lymphocytes (T cells, Tc) were isolated from PBMC fractions via nylon wool adherence. Cells were cultured in standard cell culture media and stimulated by addition of 1 μg/ml Phytohemagglutinine for 48 hours in 96 well flat-bottom microtitre plates. Test compounds were added at concentration ranges from 0.1-250 μM over the total assay period.
DNA synthesis of proliferating T cells was determined by incorporation of radio labelled tritium thymidine and subsequent radio detection.
(§2) Data output was based on raw data and calculation of relative proliferation response in relation to PHA-activated T cells in the absence of test compound (100% control).
(§3) The […] value of proliferation suppression was assessed by graphical evaluation.

[1] = test system: human peripheral blood mononuclear cells; experiment: Inhibition of proliferation of PHA-stimulated mononuclear cells (BrdU incorporation); assay type: cell-based; conditions: PBMC, 1 μg/ml Phytohemagglutinine, 48 hours, test compounds 0.1-250 μM, read-out: MNC IC50
Experimental: as §1
DNA synthesis of proliferating PBMC was assessed by incorporation of nucleotide analogue bromdesoxyuridine (BrdU) and subsequent detection of optical density (OD) at 450 nm.
as §2, §3

NC(CC(=O)NCCNC(=O)C(O)C(N)Cc1ccccc1)Cc1ccc2ccccc2c1 (stereo not drawn) [drawing 219]
IC50 (T lymphocytes): 34 µM | IC50 [1]: 30.4 µM

NC(CC(=O)NCCNC(=O)C(O)C(N)Cc1ccccc1)Cc1ccccc1 (stereo not drawn) [drawing 220]
IC50 (T lymphocytes): ≥ 200 µM | IC50 [1]: 122 µM

NC(CC(=O)NCCNC(=O)C(O)C(N)Cc1ccccc1)Cc1cc(F)ccc1F (stereo not drawn) [drawing 221]
IC50 (T lymphocytes): ≥ 200 µM | IC50 [1]: 200 µM

NC(CC(=O)N1CCN(C(=O)CC(O)C(N)Cc2ccccc2)CC1)Cc1ccccc1 (stereo not drawn) [drawing 222]
IC50 (T lymphocytes): 157 µM | IC50 [1]: 135 µM

NC(CC(=O)N1CCN(C(=O)C(O)C(N)Cc2ccccc2)CC1)Cc1ccccc1 (stereo not drawn) [drawing 223]
IC50 (T lymphocytes): 157 µM | IC50 [1]: 140 µM

NC(CC(=O)NCCNC(=O)CC(O)C(N)Cc1ccccc1)Cc1ccccc1 (stereo not drawn) [drawing 224]
IC50 (T lymphocytes): 157 µM | IC50 [1]: 120 µM

C[C@@H]1CN(C(=O)CC(O)C(N)Cc2ccccc2)C[C@H](C)N1C(=O)CC(N)Cc1ccccc1 (stereo partly drawn) [drawing 225]
IC50 (T lymphocytes): 147 µM | IC50 [1]: 84.5 µM

CC(C)(NC(=O)CC(N)Cc1ccccc1)C(C)(C)NC(=O)C(O)C(N)Cc1ccccc1 (stereo not drawn) [drawing 226]
IC50 (T lymphocytes): 16.1 µM | IC50 [1]: 46.9 µM

CC(C)(CNC(=O)CC(N)Cc1ccccc1)CNC(=O)C(O)C(N)Cc1ccccc1 (stereo not drawn) [drawing 227]
IC50 (T lymphocytes): ≥ 200 µM | IC50 [1]: 200 µM

CCC(CC)(CNC(=O)CC(N)Cc1ccccc1)CNC(=O)C(O)C(N)Cc1ccccc1 (stereo not drawn) [drawing 228]
IC50 (T lymphocytes): 14.8 µM | IC50 [1]: 49.1 µM

NC(CC(=O)NCCCCNC(=O)C(O)C(N)Cc1ccccc1)Cc1ccccc1 (stereo not drawn) [drawing 229]
IC50 (T lymphocytes): ≥ 200 µM | IC50 [1]: 200 µM

CC(C)(CNC(=O)CC(N)Cc1ccccc1)CNC(=O)CC(O)C(N)Cc1ccccc1 (stereo not drawn) [drawing 230]
IC50 (T lymphocytes): ≥ 200 µM | IC50 [1]: 200 µM

NC(CC(=O)NCCCCNC(=O)C(O)C(N)Cc1ccccc1)Cc1cc(F)ccc1F (stereo not drawn) [drawing 231]
IC50 (T lymphocytes): ≥ 200 µM | IC50 [1]: 134 µM

CC(C)(CNC(=O)CC(N)Cc1cc(F)ccc1F)CNC(=O)C(O)C(N)Cc1ccccc1 (stereo not drawn) [drawing 232]
IC50 (T lymphocytes): ≥ 200 µM | IC50 [1]: 200 µM

NC(CC(=O)NCCCCCNC(=O)C(O)C(N)Cc1ccccc1)Cc1ccccc1 (stereo not drawn) [drawing 233]
IC50 (T lymphocytes): ≥ 200 µM | IC50 [1]: 200 µM

NC(CC(=O)NCCCCCCNC(=O)C(O)C(N)Cc1ccccc1)Cc1ccccc1 (stereo not drawn) [drawing 234]
IC50 [1]: 200 µM

NC(CC(=O)NCC1(CNC(=O)C(O)C(N)Cc2ccccc2)CCC1)Cc1ccccc1 (stereo not drawn) [drawing 235]
IC50 (T lymphocytes): 157 µM | IC50 [1]: 200 µM

CC(C)(CNC(=O)CC(N)C(=O)N1CCSC1)CNC(=O)C(O)C(N)Cc1ccccc1 (stereo not drawn) [drawing 236]
IC50 (T lymphocytes): ≥ 200 µM | IC50 [1]: 200 µM

NC(CC(=O)NCCCNC(=O)C(O)C(N)Cc1ccccc1)Cc1cc(F)ccc1F (stereo not drawn) [drawing 237]
IC50 (T lymphocytes): 70 µM | IC50 [1]: 122 µM

CN(CCCN(C)C(=O)C(O)C(N)Cc1ccccc1)C(=O)CC(N)Cc1cc(F)ccc1F (stereo not drawn) [drawing 238]
IC50 (T lymphocytes): 70 µM | IC50 [1]: 122 µM

CCCCCCCC(=O)NC(CC(=O)NCC(C)(C)CNC(=O)C(O)C(Cc1ccccc1)NC(=O)CCCCCCC)Cc1cc(F)ccc1F (stereo not drawn) [drawing 239]
IC50 (T lymphocytes): 8.2 µM | IC50 [1]: 10.9 µM

CC(C)(CNC(=O)CC(CN)Cc1ccccc1)CNC(=O)C(O)C(N)Cc1ccccc1 (stereo not drawn) [drawing 240]
IC50 (T lymphocytes): 60.7 µM | IC50 [1]: 64.4 µM

NC(CC(=O)NC(CCCNC(=O)C(O)C(N)Cc1ccccc1)C(=O)O)Cc1cc(F)ccc1F (stereo not drawn) [drawing 241]
IC50 (T lymphocytes): 113 µM | IC50 [1]: 70 µM

CC(C)(CCNC(=O)CC(N)Cc1cc(F)ccc1F)CNC(=O)C(O)C(N)Cc1ccccc1 (stereo not drawn) [drawing 242]
IC50 (T lymphocytes): 157 µM | IC50 [1]: 63.3 µM

CN(CCCNC(=O)C(O)C(N)Cc1ccccc1)C(=O)CC(N)Cc1cc(F)ccc1F (stereo not drawn) [drawing 243]
IC50 (T lymphocytes): ≥ 200 µM | IC50 [1]: 157 µM

CCCC(=O)NC(CC(=O)NCC(C)(C)CNC(=O)C(O)C(Cc1ccccc1)NC(=O)CCC)Cc1cc(F)ccc1F (stereo not drawn) [drawing 244]
IC50 (T lymphocytes): 53.9 µM | IC50 [1]: 54.5 µM

NC(CC(=O)Nc1ccc(NC(=O)C(O)C(N)Cc2ccccc2)cc1)Cc1cc(F)ccc1F (stereo not drawn) [drawing 245]
IC50 (T lymphocytes): 14.6 µM | IC50 [1]: 14.8 µM

CCCCCCCC(=O)OC(C(=O)NCC(C)(C)CNC(=O)CC(N)Cc1cc(F)ccc1F)C(N)Cc1ccccc1 (stereo not drawn) [drawing 247]
IC50 (T lymphocytes): 7.4 µM | IC50 [1]: 5.8 µM

NC(CC(=O)NCCCCNC(=O)C(O)C(N)Cc1ccccc1)C(=O)N1CCSC1 (stereo not drawn) [drawing 248]
IC50 (T lymphocytes): 35.2 µM | IC50 [1]: 28.3 µM

CCCCCCCCCCCCCCCC(=O)OC(C(=O)NCC(C)(C)CNC(=O)CC(N)Cc1cc(F)ccc1F)C(N)Cc1ccccc1 (stereo not drawn) [drawing 249]
IC50 (T lymphocytes): 34.4 µM | IC50 [1]: 35.8 µM

CCCCCCCC(=O)OC(C(=O)N(C)CCCNC(=O)CC(N)Cc1cc(F)ccc1F)C(N)Cc1ccccc1 (stereo not drawn) [drawing 250]
IC50 (T lymphocytes): 9.5 µM | IC50 [1]: 11.1 µM

NC(CC(=O)NCCCCNC(=O)C(O)C(N)Cc1ccc(C(=O)O)cc1)Cc1cc(F)ccc1F (stereo not drawn) [drawing 251]
IC50 (T lymphocytes): 112 µM | IC50 [1]: 130 µM

CCCCCCCCCCCCCC(=O)OC(C(=O)NCC(C)(C)CNC(=O)CC(N)Cc1cc(F)ccc1F)C(N)Cc1ccccc1 (stereo not drawn) [drawing 252]
IC50 (T lymphocytes): 2 µM | IC50 [1]: 1.9 µM

CCCCCCCCCCCC(=O)OC(C(=O)NCC(C)(C)CNC(=O)CC(N)Cc1cc(F)ccc1F)C(N)Cc1ccccc1 (stereo not drawn) [drawing 253]
IC50 (T lymphocytes): 2 µM | IC50 [1]: 1.7 µM

CCCCCCCCCC(=O)OC(C(=O)NCC(C)(C)CNC(=O)CC(N)Cc1cc(F)ccc1F)C(N)Cc1ccccc1 (stereo not drawn) [drawing 254]
IC50 (T lymphocytes): 3.1 µM | IC50 [1]: 2.5 µM

CC(C)(CNC(=O)CC(N)Cc1cc(F)ccc1F)CNC(=O)C(OC(=O)CCCc1ccccc1)C(N)Cc1ccccc1 (stereo not drawn) [drawing 255]
IC50 (T lymphocytes): 3 µM | IC50 [1]: 2.5 µM

CCCCCCCC(=O)OC(C(=O)NCCCCNC(=O)CC(N)Cc1cc(F)ccc1F)C(N)Cc1ccccc1 (stereo not drawn) [drawing 256]
IC50 (T lymphocytes): 19 µM | IC50 [1]: 10.6 µM

CCCCCCCCCCCCCCCC(=O)OC(C(=O)NCCCCNC(=O)CC(N)Cc1cc(F)ccc1F)C(N)Cc1ccccc1 (stereo not drawn) [drawing 259]
IC50 (T lymphocytes): 4.1 µM | IC50 [1]: 2.1 µM

CCCC(=O)OC(C(=O)NCC(C)(C)CNC(=O)CC(N)Cc1cc(F)ccc1F)C(N)Cc1ccccc1 (stereo not drawn) [drawing 260]
IC50 (T lymphocytes): 55.3 µM | IC50 [1]: 95.1 µM

CCCCCC(=O)OC(C(=O)NCC(C)(C)CNC(=O)CC(N)Cc1cc(F)ccc1F)C(N)Cc1ccccc1 (stereo not drawn) [drawing 261]
IC50 (T lymphocytes): 11.3 µM | IC50 [1]: 14.3 µM

NC(CC(=O)NCC1(CNC(=O)C(O)C(N)Cc2ccccc2)CCC1)Cc1cc(F)ccc1F (stereo not drawn) [drawing 263]
IC50 (T lymphocytes): 19.2 µM | IC50 [1]: 29.9 µM

CC(C(=O)NCC(C)(C)CNC(=O)C(O)C(N)Cc1ccccc1)C(N)Cc1cc(F)ccc1F (stereo not drawn) [drawing 266]
IC50 (T lymphocytes): 38.9 µM | IC50 [1]: 41.6 µM

NC(CC(=O)NCCCCNC(=O)C(O)C(N)Cc1ccc(Br)cc1)Cc1cc(F)ccc1F (stereo not drawn) [drawing 267]
IC50 (T lymphocytes): 58.1 µM | IC50 [1]: 200 µM

CCCCCCCCCCCCCCCC(=O)NC(CC(=O)NCC(C)(C)CNC(=O)C(O)C(Cc1ccccc1)NC(=O)CCCCCCCCCCCCCCC)Cc1cc(F)ccc1F (stereo not drawn) [drawing 268]
IC50 (T lymphocytes): 97.5 µM | IC50 [1]: 200 µM

NC(CC(=O)NC1CCCC(NC(=O)C(O)C(N)Cc2ccccc2)C1)Cc1cc(F)ccc1F (stereo not drawn) [drawing 269]
IC50 (T lymphocytes): 113 µM | IC50 [1]: 200 µM

NC(CC(=O)Nc1cccc(NC(=O)C(O)C(N)Cc2ccccc2)c1)Cc1cc(F)ccc1F (stereo not drawn) [drawing 270]
IC50 (T lymphocytes): 9.4 µM | IC50 [1]: 9.1 µM

NC(CC(=O)N1CCCN(C(=O)C(O)C(N)Cc2ccccc2)CC1)Cc1cc(F)ccc1F (stereo not drawn) [drawing 271]
IC50 (T lymphocytes): 83.5 µM | IC50 [1]: 200 µM

CCCCCCCCCCCCCCCCNC(CC(=O)NCC(C)(C)CNC(=O)C(O)C(Cc1ccccc1)NCCCCCCCCCCCCCCCC)Cc1cc(F)ccc1F (stereo not drawn) [drawing 272]
IC50 (T lymphocytes): 11 µM | IC50 [1]: 10 µM

NC(CC(=O)NCC1(CNC(=O)C(O)C(N)Cc2ccccc2)CCCCC1)Cc1cc(F)ccc1F (stereo not drawn) [drawing 273]
IC50 (T lymphocytes): 7 µM | IC50 [1]: 7.4 µM

NC(CC(=O)NCC1(CNC(=O)C(O)C(N)Cc2ccccc2)CCCC1)Cc1cc(F)ccc1F (stereo not drawn) [drawing 274]
IC50 (T lymphocytes): 12.9 µM | IC50 [1]: 16.2 µM

CC(C)(CNC(=O)CC(N)Cc1cc(F)ccc1F)CNC(=O)C1OC(=O)NC1Cc1ccc(-c2ccccc2)cc1 (stereo not drawn) [drawing 275]
IC50 (T lymphocytes): 139 µM | IC50 [1]: 200 µM

CC(C)(CNCC(N)Cc1cc(F)ccc1F)CNC(=O)C(O)C(N)Cc1ccccc1 (stereo not drawn) [drawing 276]
IC50 (T lymphocytes): 30.3 µM | IC50 [1]: 30.6 µM

NC(CNC(=O)c1cccc(NC(=O)C(O)C(N)Cc2ccccc2)c1)Cc1cc(F)ccc1F (stereo not drawn) [drawing 277]
IC50 (T lymphocytes): 21.4 µM | IC50 [1]: 27.2 µM

CN(CCCNC(=O)OCc1ccccc1)C(=O)C(O)C(N)Cc1ccccc1 (stereo not drawn) [drawing 278]
IC50 (T lymphocytes): ≥ 200 µM | IC50 [1]: 149 µM

CC(C)(CNC(=O)CC(N)Cc1cc(F)ccc1F)CNC(=O)C(O)C(N)Cc1ccc(O)cc1 (stereo not drawn) [drawing 279]
IC50 (T lymphocytes): 37.6 µM | IC50 [1]: 43.2 µM

CC(C)(CNC(=O)CC(N)Cc1cc(F)ccc1F)CNC(=O)C(O)C(N)Cc1ccc(-c2ccsc2)cc1 (stereo not drawn) [drawing 280]
IC50 (T lymphocytes): 6.3 µM | IC50 [1]: 4.6 µM

CC(C)(CNC(=O)CC(N)Cc1cc(F)ccc1F)CNC(=O)C(O)C(N)Cc1ccc(-c2ccccc2)cc1 (stereo not drawn) [drawing 281]
IC50 (T lymphocytes): 98.5 µM | IC50 [1]: 119 µM

CC(C)(CNC(=O)CC(N)Cc1cc(F)ccc1F)CNC(=O)C(O)C(N)Cc1ccc(-c2cccnc2)cc1 (stereo not drawn) [drawing 282]
IC50 (T lymphocytes): 64.9 µM | IC50 [1]: 31.4 µM

CC(C)(CNC(=O)CC(N)Cc1cc(F)ccc1F)CNC(=O)C(O)C(N)Cc1ccc(-c2cncnc2)cc1 (stereo not drawn) [drawing 283]
IC50 (T lymphocytes): 96.1 µM | IC50 [1]: 70 µM
